Test results reported in PMC9415015, “CK2 Inhibition and Antitumor Activity of 4,7-Dihydro-6-nitroazolo[1,5-a]pyrimidines” (Molecules, 2022).
Read-outs that look alike come from different tables or passages of the source.

Tests used:
[1] = test system: A-172 cells; experiment: MTT test, glioblastoma cells; format: cell-based, human; details: for Cytotoxicity index IC50 ± SE, A-172: MTT, 72 h incubation; for Selectivity ratio SR (A-172): normal/cancer cell (Hek-293 vs A-172)
Method: (§1) The studies were carried out on cultured cells of human glioblastoma (A-172, ATCC CRL 1620), human osteosarcoma (Hos, ATCC CRL 1543), human embryonic rhabdomyosarcoma (Rd, ATCC CRL 136), and human embryonic kidney 293 cells (Hek-293, ATCC CRL 1573) obtained from the Shared research facility “Vertebrate cell culture collection” (Institute of Cytology RAS, Saint-Petersburg, Russia). The cells were cultured using DMEM / F-12 medium containing 10% fetal bovine serum at 37°C, 5% CO2, and 98% humidity. Subculturing was performed using 0.25% trypsin solution when the culture reached ≥90% confluency.
(§2) The compounds were dissolved in DMSO. The solutions were diluted with DMEM/F-12 culture medium with 10% fetal bovine serum to the studied concentrations: 8, 16, 32, 64, 128, 256, 512, and 1024 µM. […] Cisplatin (cPt) was used as a positive control.
(§3) Cells were seeded in 96-well plates at a concentration of 4 × 10^3 cells per well. After 24 h, test compounds were added to the wells in a given concentration range. Then the cells were incubated for 72 h, after which a solution of MTT (3-(4,5-dimethyl-2-thiazolyl)-2,5-diphenyl-2H-tetrazolium bromide) was added to the cultures at 20 µL (5 mg/mL) to the well. After 2.5 h, the medium was removed from the wells and 200 µL of a mixture of DMSO/i-PrOH 1/1 was added. Optical density was measured on a plate spectrophotometer at a wavelength of 570 nm.
(§4) Statistical data processing was carried out in the RStudio program (Version 1.4.1106 © […] RStudio, PBC, Boston, MA, USA) using the R package (version 4.1.2). The cytotoxicity index (IC50) was calculated by plotting dose–response curves using the “drc” package.

[2] = test system: Rd cells; experiment: MTT test, embryonic rhabdomyosarcoma cells; format: cell-based, human; details: for Cytotoxicity index IC50 ± SE, Rd: MTT, 72 h incubation; for Selectivity ratio SR (RD): normal/cancer cell (Hek-293 vs Rd)
Method: as §1, §2, §3, §4

[3] = test system: Hos cells; experiment: MTT test, osteosarcoma cells; format: cell-based, human; details: for Cytotoxicity index IC50 ± SE, Hos: MTT, 72 h incubation; for Selectivity ratio SR (HOS): normal/cancer cell (Hek-293 vs Hos)
Method: as §1, §2, §3, §4

[4] = test system: Hek-293 cells; experiment: MTT test, human embryonic kidney cells; format: cell-based; details: 72 h incubation
Method: as §1, §2, §3, §4

[5] = target: T1, human recombinant CK2α1 (Homo sapiens, UniProt P68400); experiment: CK2 ADP-Glo kinase assay; format: biochemical; details: for inhibition at 50 µM: read-out: CK2 Inhibition at 50 μM, m ± SD (%); for Effect on CK2 activity in initial screening (in words): initial screening at 50 μM
T1 construct: purchased Promega V4482
T1 sequence (P68400 whole entry): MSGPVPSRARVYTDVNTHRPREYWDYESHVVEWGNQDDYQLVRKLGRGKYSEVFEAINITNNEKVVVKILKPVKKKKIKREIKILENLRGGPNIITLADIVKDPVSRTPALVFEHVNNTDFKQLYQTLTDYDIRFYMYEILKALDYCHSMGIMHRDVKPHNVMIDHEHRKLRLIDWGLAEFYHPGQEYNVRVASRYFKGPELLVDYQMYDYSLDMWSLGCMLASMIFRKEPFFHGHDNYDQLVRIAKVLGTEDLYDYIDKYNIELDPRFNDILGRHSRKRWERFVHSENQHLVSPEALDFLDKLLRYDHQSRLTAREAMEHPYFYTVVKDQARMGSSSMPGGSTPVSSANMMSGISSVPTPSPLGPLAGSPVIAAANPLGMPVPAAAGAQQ
Method: Kinase activity was determined using the enzyme system CK2α1 (Promega V4482, Madison, WI, USA) and the ADP-Glo^TM kit (Promega V9101, Madison, WI, USA) in white 96-well plates (Nunc U96 Microwell 267350, Denmark). The reaction was carried out using 50 ng/well of N-GST labeled human recombinant CK2α1, 0.1 µg/µL bovine casein as a substrate, 10 μM ATP in 40 mM Tris buffer solution (pH 7.50) containing 20 mM MgCl2, 0.1 mg/mL of BSA, and 50 μM of DTT. Test compounds were added to 1.25% DMSO (final concentration 0.25%) and preincubated with kinase for 10 min. The reaction was carried out for 60 min at 25 °C in a thermostatically controlled PST-60HL shaker (Biosan. […], Latvia). ATP-dependent luminescence was measured at an integration time of 1000 ms using the Infinite M200 PRO microplate reader (Tecan. Austria). The ATP-competitive inhibitor Staurosporin (CAS 62996–74-1, Alfa Aesar J62837, 99+%) was used as a positive control. The experiments were performed in two parallels.

[6] = 50 μM compound, 10 μM ATP, n.a. = not active
[7] = dose-response study of CK2 inhibition
[8] = dose-response study, 10 μM ATP, read-out: CK2 IC50

Compound | Cytotoxicity index IC50 ± SE, A-172 [1] [µM] | Cytotoxicity index IC50 ± SE, Rd [2] [µM] | Cytotoxicity index IC50 ± SE, Hos [3] [µM] | Cytotoxicity index IC50 ± SE, Hek-293 [4] [µM] | inhibition at 50 µM [5, 6] [%] | CK2 inhibitory potency in dose-response study (in words) ([5]; dose-response study) | Hill Coefficient [5, 7] | IC50 [5, 8] [µM] | Effect on CK2 activity in initial screening (in words) [5] | Selectivity ratio SR (A-172) [1] | Selectivity ratio SR (RD) [2] | Selectivity ratio SR (HOS) [3] | IC50 [5] [µM] | inhibition at 50 µM [5] [%] | Hill Coefficient [5]
CC1=C([N+](=O)[O-])C(c2cccs2)n2nccc2N1 (stereo not drawn) [Compound 5d, 6-Nitro-5-methyl-7-(thiophen-2ʹ-yl)-4,7-dihydropyrazolo[1,5-a]pyrimidine] | 28.91 ± 4.58 | 105.54 ± 16.81 | 103.53 ± 18.27 | 543.74 ± 70.79 | – | – | – | – | – | – | – | – | – | – | –
CSc1nn2c(c1C#N)NC=C([N+](=O)[O-])C2c1ccccc1 (stereo not drawn) [Compound 5l, 3-Cyano-2-methylthio-6-nitro-7-phenyl-4,7-dihydropyrazolo[1,5-a]pyrimidine] | 77.79 ± 4.02 | 124.66 ± 6.80 | 92.91 ± 3.91 | 162.30 ± 9.95 | 48.4 ± 4.48 | micromolar CK2 inhibitors | −2.947 | 57.2 | Moderate inhibition | – | – | – | – | – | –
CCC1=C([N+](=O)[O-])C(c2cccs2)n2ncc(C#N)c2N1 (stereo not drawn) [Compound 5k, 3-Cyano-5-ethyl-6-nitro-7-(thiophen-2-yl)-4,7-dihydropyrazolo[1,5-a]pyrimidine] | 110.23 ± 2.97 | 89.43 ± 10.46 | 77.32 ± 3.06 | 107.57 ± 11.10 | 66.8 ± 7.97 | micromolar CK2 inhibitors | −1.183 | 52.3 | Moderate inhibition | – | – | – | – | – | –
CCC1=C([N+](=O)[O-])C(c2ccc([N+](=O)[O-])cc2)n2nc(C(F)(F)F)nc2N1 (stereo not drawn) [Compound 6e] | 82.44 ± 2.22 | 192.69 ± 10.27 | 93.72 ± 5.89 | 54.16 ± 5.32 | 39.8 ± 19.5 | low potency | – | > 100 | Moderate inhibition | – | – | – | – | – | –
CSc1nc2n(n1)C(c1ccccc1)C([N+](=O)[O-])=C(C)N2 (stereo not drawn) [Compound 6b, 5-Methyl-2-methylthio-6-nitro-7-phenyl-4,7-dihydro-1,2,4-triazolo[1,5-a]pyrimidine] | 71.03 ± 2.07 | 110.11 ± 4.93 | 92.03 ± 3.08 | 237.40 ± 11.99 | – | – | – | – | – | – | – | – | – | – | –
5-Methyl-2-methylthio-6-nitro-7-(4ʹ-nitrophenyl)-4,7-dihydro-1,2,4-triazolo[1,5-a]pyrimidine [Compound 6c] | 41.27 ± 4.10 | 71.15 ± 6.84 | 40.88 ± 4.11 | – | – | – | – | – | paradoxically enhance CK2 activity | 5.5 | 3.2 | 5.6 | – | – | –
CCC1=C([N+](=O)[O-])C(c2ccc([N+](=O)[O-])cc2)n2nc(SC)c(C#N)c2N1 (stereo not drawn) [Compound 5n, 5-Ehtyl-3-cyano-2-methylthio-6-nitro-7-(4ʹ-nitrophenyl)-4,7-dihydropyrazolo[1,5-a]pyrimidine] | 119.75 ± 8.49 | 151.44 ± 7.28 | 112.26 ± 8.19 | 78.70 ± 9.75 | 19.8 ± 24.5 | – | – | – | – | – | – | – | – | – | –
N.N.[Cl][Pt][Cl] [cPt, Cisplatin, reference compound] | 3.64 ± 0.21 | 4.99 ± 0.31 | 2.36 ± 0.12 | 4.41 ± 0.24 | – | – | – | – | – | 1.2 | 0.9 | 1.9 | – | – | –
CCC1=C([N+](=O)[O-])C(c2ccc([N+](=O)[O-])cc2)n2ncc(C#N)c2N1 (stereo not drawn) [Compound 5h, 3-Cyano-5-ehtyl-6-Nitro-7-(4ʹ-nitrophenyl)-4,7-dihydropyrazolo[1,5-a]pyrimidine] | 323.41 ± 22.70 | 378.59 ± 20.39 | 234.97 ± 25.80 | 153.47 ± 12.35 | – | micromolar CK2 inhibitors | −1.566 | – | Moderate inhibition | – | – | – | 59.5 | 54.8 ± 0.87 | –
CSc1nn2c(c1C#N)NC(C)=C([N+](=O)[O-])C2c1ccccc1 (stereo not drawn) [Compound 5m, 3-Cyano-5-methyl-2-methylthio-6-nitro-7-phenyl-4,7-dihydropyrazolo[1,5-a]pyrimidine] | 13.36 ± 0.98 | 27.52 ± 2.77 | 18.54 ± 1.79 | – | – | – | – | – | paradoxically enhance CK2 activity | 15.8 | 7.7 | 11.4 | – | – | –
3-Cyano-2-methylthio-6-nitro-7-(4ʹ-nitrophenyl)-4,7-dihydropyrazolo[1,5-a]pyrimidine [Compound 5o] | 22.49 ± 2.93 | 36.33 ± 3.40 | 28.09 ± 3.91 | – | – | – | – | – | paradoxically enhance CK2 activity | 7.5 | 4.7 | 6 | – | – | –
CCOC(=O)c1cnn2c1NC(CC)=C([N+](=O)[O-])C2c1ccccc1 (stereo not drawn) [Compound 5e, 3-Etoxycarbonyl-5-ethyl-6-nitro-7-phenyl-4,7-dihydropyrazolo[1,5-a]pyrimidine] | 256.72 ± 12.20 | 99.46 ± 4.43 | 126.60 ± 7.17 | 222.84 ± 6.33 | – | – | – | – | – | – | – | – | – | – | –
CN[C@@H]1C[C@H]2O[C@@](C)([C@@H]1OC)n1c3ccccc3c3c4c(c5c6ccccc6n2c5c31)C(=O)NC4 [Staurosporine, reference compound] | – | – | – | – | – | – | – | – | – | – | – | – | – | 72.3 ± 6.39 | −0.974
N#Cc1cnn2c1NC=C([N+](=O)[O-])C2c1ccccc1 (stereo not drawn) [Compound 5g, 3-Cyano-6-nitro-7-phenyl-4,7-dihydropyrazolo[1,5-a]pyrimidine] | 171.74 ± 8.63 | 149.72 ± 11.01 | 181.14 ± 7.47 | 483.09 ± 37.61 | – | – | – | – | paradoxically enhance CK2 activity | – | – | – | – | – | –
CCOC(=O)c1cnn2c1NC(CC)=C([N+](=O)[O-])C2c1ccc([N+](=O)[O-])cc1 (stereo not drawn) [Compound 5f, 3-Etoxycarbonyl-5-ethyl-6-nitro-7-(4ʹ-nitrophenyl)-4,7-dihydropyrazolo[1,5-a]pyrimidine] | 212.36 ± 42.85 | 121.97 ± 13.53 | 170.14 ± 11.16 | 35.86 ± 4.30 | – | micromolar CK2 inhibitors | −1.369 | – | Moderate inhibition | – | – | – | 52.8 | 53.81 ± 0.42 | –
